# Active and inactive are the calls of the source. Cut-off read from the data, not from the text of the source, for most assays here: actives have a measured EC50 and inactives only a lower limit.
# Columns and labels:
# [1] = molecular target: Heat shock protein HSP 90-alpha (Homo sapiens, UniProt P07900); type: functional, organism-based
# [2] = molecular target: T1, Heat shock factor protein 1 (Mus musculus, UniProt P38532); assay: enhancement of HSF1-driven luciferase signal – cell-based, NIH3T3, luminescence, dose retest, confirmation (AID 435004); type: functional;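 note: stress induced by proteasome inhibitor MG132 added 30 min after compound; luciferase reporter driven by HSF1 response element in NIH3T3 cells; actives raise luminescence as potentiators of the MG132 stress response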
# T1 sequence (P38532 whole entry): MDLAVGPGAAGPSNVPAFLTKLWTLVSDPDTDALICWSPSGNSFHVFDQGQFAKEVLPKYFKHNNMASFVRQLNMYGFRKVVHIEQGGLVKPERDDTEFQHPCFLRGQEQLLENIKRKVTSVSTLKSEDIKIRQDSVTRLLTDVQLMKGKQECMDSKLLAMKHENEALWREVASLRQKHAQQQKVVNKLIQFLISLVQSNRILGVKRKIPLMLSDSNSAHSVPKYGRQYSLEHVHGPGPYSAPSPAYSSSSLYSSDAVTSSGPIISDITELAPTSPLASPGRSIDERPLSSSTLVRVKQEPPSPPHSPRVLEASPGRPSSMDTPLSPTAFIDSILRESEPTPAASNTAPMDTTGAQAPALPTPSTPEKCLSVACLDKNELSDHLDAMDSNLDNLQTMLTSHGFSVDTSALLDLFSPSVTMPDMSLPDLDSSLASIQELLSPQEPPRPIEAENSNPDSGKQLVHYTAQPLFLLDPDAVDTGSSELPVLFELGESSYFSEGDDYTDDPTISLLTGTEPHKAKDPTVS
# [3] = Luminescence Cell-Based Dose Confirmation HTS to Identify Inhibitors of Platelet Dense Granule Release. [Related pubchem assays: 1663 (Primary HTS), 1678 (Summary of Project)]; type: functional
# [4] = molecular target: Luciferin 4-monooxygenase (Photinus pyralis, UniProt P08659); assay: inhibition of purified Photinus pyralis luciferase – biochemical, luminescence, dose response (AID 1891)
# Luciferin 4-monooxygenase, sequence (P08659 whole entry): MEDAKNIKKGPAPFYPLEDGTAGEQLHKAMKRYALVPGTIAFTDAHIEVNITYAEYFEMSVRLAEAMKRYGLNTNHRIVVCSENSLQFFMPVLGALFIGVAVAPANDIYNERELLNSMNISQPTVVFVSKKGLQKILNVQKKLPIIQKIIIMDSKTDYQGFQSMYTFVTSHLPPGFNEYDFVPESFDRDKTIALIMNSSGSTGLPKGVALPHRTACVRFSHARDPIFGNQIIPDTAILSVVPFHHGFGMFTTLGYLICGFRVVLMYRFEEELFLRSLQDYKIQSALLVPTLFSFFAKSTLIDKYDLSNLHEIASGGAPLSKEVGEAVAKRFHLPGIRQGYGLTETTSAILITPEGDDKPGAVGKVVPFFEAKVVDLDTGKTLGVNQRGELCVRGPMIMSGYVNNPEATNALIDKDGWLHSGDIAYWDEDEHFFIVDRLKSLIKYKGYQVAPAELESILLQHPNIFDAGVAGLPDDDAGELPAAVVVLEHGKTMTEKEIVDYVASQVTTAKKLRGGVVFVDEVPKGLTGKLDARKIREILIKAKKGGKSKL
# [5] = NIH-3T3 fibroblast cytotoxicity, dose response, cytotoxicity control, cell-based, fluorescence, Alamar Blue, secondary assay (AID 2327); type: functional;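 note: NIH-3T3 mouse fibroblasts cultured with fluconazole at 8 µg/mL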
# [6] = tested on: BJ; assay: BJ-TERT-LT-ST fibroblast viability loss – cell-based, RAS-independent, luminescence, dose response (AID 1935); type: functional; conditions: Homo sapiens;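 note: BJ fibroblasts immortalized with TERT plus LT and ST oncogenes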
# [7] = tested on: BJ; assay: BJ-TERT fibroblast viability loss – cell-based, RAS-independent, luminescence, dose response (AID 1933); type: functional; conditions: Homo sapiens
# [8] = fluconazole-exposed Candida albicans growth modulators – fluorescence, retest, confirmation (AID 2467); type: functional, cell-based
# [9] = tested on: BJ; assay: cells; type: functional, cell-based; conditions: Homo sapiens
# [10] = DRD fibroblast viability loss – cell-based, non-viral oncogenic, luminescence, dose response (AID 1934); type: functional; conditions: Homo sapiens
# [11] = molecular target: T2, Ubiquitin-conjugating enzyme E2 N (Homo sapiens, UniProt P61088); type: functional;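 note: Dose-response confirmation in a TR-FRET assay detecting UBC13-driven polyubiquitin chain formation, inhibition measured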
# T2 sequence (P61088 whole entry): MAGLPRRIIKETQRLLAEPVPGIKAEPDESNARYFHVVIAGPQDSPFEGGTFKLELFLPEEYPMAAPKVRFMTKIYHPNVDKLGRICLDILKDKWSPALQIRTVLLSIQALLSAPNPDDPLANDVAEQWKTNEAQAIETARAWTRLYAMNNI
# [12] = tested on: INS1; assay: INS-1E survival protection against cytokine death – cell-based, luminescence, retest, dose response (AID 449756); type: functional; conditions: Rattus norvegicus;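 note: cell death triggered by IL-1 beta plus TNF-alpha plus IFN-gamma mixture; protective hits raise ATP signal compared with cytokine alone wells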
# [13] = molecular target: T3, Protein skinhead-1 (Caenorhabditis elegans, UniProt P34707); type: functional
# T3 sequence (P34707 whole entry): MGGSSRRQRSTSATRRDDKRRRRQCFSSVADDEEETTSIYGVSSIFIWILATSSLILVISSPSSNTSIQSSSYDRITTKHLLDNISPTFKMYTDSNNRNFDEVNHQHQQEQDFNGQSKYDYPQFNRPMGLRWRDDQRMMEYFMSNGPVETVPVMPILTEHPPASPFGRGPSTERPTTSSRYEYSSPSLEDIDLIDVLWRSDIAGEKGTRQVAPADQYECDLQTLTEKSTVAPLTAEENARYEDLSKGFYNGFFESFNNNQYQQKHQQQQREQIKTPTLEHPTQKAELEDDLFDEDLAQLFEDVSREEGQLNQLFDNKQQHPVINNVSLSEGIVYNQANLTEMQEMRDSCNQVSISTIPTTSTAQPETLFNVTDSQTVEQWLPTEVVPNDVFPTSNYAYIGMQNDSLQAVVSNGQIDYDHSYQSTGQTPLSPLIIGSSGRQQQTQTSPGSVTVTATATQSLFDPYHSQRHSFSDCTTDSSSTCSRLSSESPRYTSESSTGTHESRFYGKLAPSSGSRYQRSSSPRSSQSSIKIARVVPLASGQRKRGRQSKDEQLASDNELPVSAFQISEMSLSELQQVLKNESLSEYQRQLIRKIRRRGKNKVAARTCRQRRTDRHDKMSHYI
# [14] = molecular target: T1, Heat shock factor protein 1; assay: decrease of HSF1-responsive luciferase luminescence – cell-based, NIH3T3, dose retest, confirmation (AID 2382); type: functional;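 note: NIH3T3 fibroblasts with HSF1-driven luciferase reporter stressed by proteasome inhibitor MG132; luminescence from HSF1-driven luciferase expression after 8 hours of MG132 stress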
# [15] = intracellular Trypanosoma cruzi inhibitors in host cells – cell-based, plate reader, cherry-pick samples, set 3, dose response (AID 651818); type: functional;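 note: compounds incubated with infected cells for about four days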
# [16] = molecular target: T4, RNA-binding protein pos-1 (Caenorhabditis elegans, UniProt G5EF15); assay: disruptors of C. elegans POS-1 RNA interaction – biochemical, fluorescence polarization, dose response (AID 1964);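 note: purified POS-1 fused to maltose binding protein made in E. coli; potency of compounds blocking POS-1 binding to fluorescent RNA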
# T4 sequence (G5EF15 whole entry): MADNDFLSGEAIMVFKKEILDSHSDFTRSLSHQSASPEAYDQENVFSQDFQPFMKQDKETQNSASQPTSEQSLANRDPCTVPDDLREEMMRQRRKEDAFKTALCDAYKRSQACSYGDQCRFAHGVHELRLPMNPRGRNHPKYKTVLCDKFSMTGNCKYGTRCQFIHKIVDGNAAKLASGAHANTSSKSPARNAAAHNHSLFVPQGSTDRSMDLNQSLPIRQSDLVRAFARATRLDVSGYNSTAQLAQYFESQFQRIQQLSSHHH
# [17] = molecular target: T5, Zinc finger protein mex-5 (Caenorhabditis elegans, UniProt Q9XUB2); assay: potency of MEX-5 RNA-binding blockers – biochemical, C. elegans, fluorescence polarization, dose response (AID 1960)
# T5 sequence (Q9XUB2 whole entry): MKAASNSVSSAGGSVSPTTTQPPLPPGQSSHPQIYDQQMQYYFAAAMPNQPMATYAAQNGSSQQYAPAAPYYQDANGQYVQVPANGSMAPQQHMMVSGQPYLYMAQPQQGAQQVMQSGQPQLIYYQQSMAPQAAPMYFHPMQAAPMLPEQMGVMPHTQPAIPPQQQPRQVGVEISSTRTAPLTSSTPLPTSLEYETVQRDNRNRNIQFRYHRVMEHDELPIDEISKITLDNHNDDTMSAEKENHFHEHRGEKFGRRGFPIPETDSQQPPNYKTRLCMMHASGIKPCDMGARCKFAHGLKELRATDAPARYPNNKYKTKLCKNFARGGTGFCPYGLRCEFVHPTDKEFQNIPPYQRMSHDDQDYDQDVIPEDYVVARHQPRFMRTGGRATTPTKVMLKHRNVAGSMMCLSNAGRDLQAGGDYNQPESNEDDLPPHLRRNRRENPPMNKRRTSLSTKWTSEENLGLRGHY
# [18] = molecular target: Large T antigen (Simian virus 40, UniProt P03070); type: functional, Betapolyomavirus macacae;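 note: Confirmatory-stage PubChem screen for compounds that inhibit SV40 T antigen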
# Large T antigen, sequence (P03070 whole entry): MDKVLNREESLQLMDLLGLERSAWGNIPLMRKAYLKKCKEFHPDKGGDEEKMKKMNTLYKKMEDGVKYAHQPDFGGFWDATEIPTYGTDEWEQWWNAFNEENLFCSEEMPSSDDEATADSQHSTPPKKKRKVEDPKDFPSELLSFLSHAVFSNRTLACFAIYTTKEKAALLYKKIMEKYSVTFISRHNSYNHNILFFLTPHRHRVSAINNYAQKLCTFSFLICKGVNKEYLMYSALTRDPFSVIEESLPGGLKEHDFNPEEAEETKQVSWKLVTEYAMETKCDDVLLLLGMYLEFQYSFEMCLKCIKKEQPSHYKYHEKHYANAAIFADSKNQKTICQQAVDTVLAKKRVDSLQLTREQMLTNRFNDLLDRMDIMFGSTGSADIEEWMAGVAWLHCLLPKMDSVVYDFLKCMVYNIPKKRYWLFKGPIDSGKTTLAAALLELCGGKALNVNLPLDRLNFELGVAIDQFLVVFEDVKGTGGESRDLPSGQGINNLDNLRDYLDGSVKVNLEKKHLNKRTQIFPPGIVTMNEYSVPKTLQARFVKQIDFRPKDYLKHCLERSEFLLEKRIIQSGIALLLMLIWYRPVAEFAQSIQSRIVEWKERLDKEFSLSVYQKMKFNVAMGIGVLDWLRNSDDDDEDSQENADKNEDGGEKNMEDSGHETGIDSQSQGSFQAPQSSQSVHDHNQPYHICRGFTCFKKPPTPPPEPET
smiles,measurement,setting,value
CCn1c(CNc2ccc(Cl)cc2)nnc1SCc1ccccc1,AC50,[1],1.57 µM (active)
CCOC(=O)c1ccc(N2C(=O)CC(N3CCC(Nc4ccc(F)cc4)CC3)C2=O)cc1 (stereo not drawn),AC50,[1],3.01 µM (active)
same,EC50,[2],> 260 µM (inactive)
CCNc1nc(NC#N)nc(SCC(=O)OCC)n1,EC50,[3],> 112 µM (not active)
same,EC50,[4],> 112 µM (not active)
Cc1noc(/C=C/c2ccccn2)c1[N+](=O)[O-],EC50,[5],3.04 µM (inconclusive)
same,EC50,[6],9.6 µM (active)
same,EC50,[7],8.5 µM (active)
same,EC50,[8],2.97 µM (active)
same,EC50,[9],24.5 µM (inconclusive)
same,EC50,[10],9.44 µM (active)
Cc1ccc(C(=O)NCCCNCCCN(C)C)cn1,IC50,[11],> 20 µM (inactive)
Cc1ccc(C(=O)N/C(=C\c2ccc(-c3ccccc3[N+](=O)[O-])o2)C(=O)NCCCN2CCOCC2)cc1,AC50,[12],6.33 µM (active)
CCOc1cc2c(cc1OCC)C(C(=O)O)C(c1cc(OC)c(OC)c(OC)c1)N(C)C2=O (stereo not drawn),IC50,[13],> 100 µM (inactive)
CCc1ccc(-c2cc3c(=O)n(CC(=O)NCCCN4CCC(Cc5ccccc5)CC4)nc(C)n3n2)cc1,IC50,[11],> 20 µM (inactive)
COc1ccc(C(CNC(=O)c2ccc(-c3nc4ccccc4s3)o2)N2CCCC2)cc1 (stereo not drawn),IC50,[11],> 20 µM (inactive)
CSc1cccc(NC(=O)c2cccc3cccnc23)c1,IC50,[13],14.7 µM (active)
CCOC(=O)c1ccccc1NC(=O)Cc1ccccc1OC,IC50,[13],> 100 µM (inactive)
CCN(CC)S(=O)(=O)c1cc(OCC(N)=O)c(C)cc1Cl,EC50,[3],> 112 µM (not active)
same,EC50,[4],> 112 µM (not active)
O=c1cc(CN2CCN(c3ccccc3O)CC2)nc2sccn12,EC50,[3],53.2 µM (active)
same,EC50,[4],> 112 µM (not active)
CSc1nsc(SCc2ccc(F)cc2)n1,IC50,[13],18.9 µM (active)
CSc1ccc(/C=C2\C(=N)N3N=C(CC(=O)N4CCOCC4)SC3=NC2=O)cc1,EC50,[3],> 112 µM (not active)
same,EC50,[4],> 112 µM (not active)
COc1ccc(N2CCN(CCCn3c(=S)[nH]c4ncccc4c3=O)CC2)cc1,EC50,[6],> 150 µM (not active)
same,EC50,[7],> 150 µM (not active)
same,EC50,[9],44.2 µM (active)
same,EC50,[10],58.9 µM (active)
same,EC50,[14],> 195 µM (not active)
Cc1ccc(S(=O)(=O)NCC23C=CC(O2)C2C(=O)N(c4ccccc4)C(=O)C23)cc1 (stereo not drawn),AC50,[1],17.7 µM (active)
O=C(Nc1nccs1)C1CCN(S(=O)(=O)c2ccc(F)cc2)CC1,EC50,[3],18.6 µM (active)
same,EC50,[4],> 112 µM (not active)
O=C(Nc1ccc(F)cc1)C1CCCCC1,EC50,[3],> 112 µM (not active)
same,EC50,[4],> 112 µM (not active)
CN(C)CCCNC(=O)C(=O)NCC1OCCN1S(=O)(=O)c1cccs1 (stereo not drawn),IC50,[11],> 20 µM (inactive)
CC1=Nc2cc(C(=O)NCCCOC(C)C)ccc2Sc2ccc(C)cc21,EC50,[6],2.75 µM (active)
same,EC50,[7],2.72 µM (active)
same,EC50,[9],3.85 µM (inconclusive)
same,EC50,[10],2.86 µM (active)
O=C(CSc1nc2ccccc2c(=O)n1-c1ccccc1)N1CCc2ccccc2C1,AC50,[12],3.61 µM (active)
N#Cc1ccsc1NC(=O)C1CCN(C(=O)c2ccc(F)cc2)CC1,IC50,[11],> 20 µM (inactive)
COc1ccc(C(=O)N2CCCc3ccccc32)cc1,EC50,[3],> 112 µM (not active)
same,EC50,[4],> 112 µM (not active)
O=C(CN1CCOCC1)c1cccc2ccccc12,IC50,[13],> 100 µM (inactive)
CCOc1ncccc1C(=O)N1CCN(c2cccc(C)c2C)CC1,EC50,[6],0.349 µM (inconclusive)
same,EC50,[7],0.541 µM (active)
same,EC50,[9],37.3 µM (inconclusive)
same,EC50,[10],0.458 µM (active)
O=C(c1nc[nH]c1C(=O)N1CCc2ccccc2C1)N1CCc2ccccc2C1,IC50,[13],> 100 µM (inactive)
FC(F)(F)c1cc(CCN2CCNC[C@@H]2c2ccccc2)cc(C(F)(F)F)c1,IC50,[11],> 20 µM (inactive)
Cc1ccc(/C=N/NC(=O)c2csc3c2CCCC3)cc1,EC50,[6],93.4 µM (active)
same,EC50,[7],2.46 µM (active)
same,EC50,[9],54.1 µM (active)
same,EC50,[10],1.9 µM (active)
C[C@H](CO)N1C[C@H](C)[C@@H](CN(C)Cc2ccc(C(=O)Nc3ccccc3N)cc2)Oc2c(NC(=O)c3cnccn3)cccc2C1=O,AC50,[15],2.45 µM (active)
C[C@H](CO)N1C[C@H](C)[C@H](CN(C)C(=O)Nc2ccc(C(F)(F)F)cc2)Oc2c(NC(=O)c3nc4ccccc4s3)cccc2C1=O,AC50,[15],2.35 µM (active)
Cc1ccc(S(=O)(=O)Nc2ccc3c(c2)C(=O)N([C@H](C)CO)C[C@H](C)[C@H](CN(C)Cc2ccc(C(F)(F)F)cc2)OCCCC[C@@H](C)O3)cc1,AC50,[15],3.01 µM (active)
C[C@H](CO)N1C[C@H](C)[C@@H](CN(C)Cc2ccc(C(F)(F)F)cc2)Oc2c(NC(=O)Nc3ccc(F)cc3)cccc2C1=O,AC50,[15],5.99 µM (active)
C[C@H](CO)N1C[C@H](C)[C@H](CN(C)Cc2ccc3c(c2)OCO3)Oc2c(NC(=O)Nc3ccc(C(F)(F)F)cc3)cccc2C1=O,AC50,[15],0.956 µM (active)
C[C@@H]1CN([C@H](C)CO)C(=O)c2cccc(NS(=O)(=O)c3ccc(Cl)cc3)c2O[C@@H]1CN(C)Cc1ccccc1,AC50,[15],20 µM (inactive)
COc1ccc(S(=O)(=O)Nc2ccc3c(c2)CC(=O)N([C@H](C)CO)C[C@@H](C)[C@H](CN(C)CC2CCCCC2)O3)cc1,AC50,[15],2.97 µM (active)
C[C@@H]1CN([C@@H](C)CO)C(=O)c2cccc(NC(=O)CCCCCC(=O)Nc3ccccc3N)c2O[C@@H]1CN(C)Cc1ccc(Cl)c(Cl)c1,AC50,[15],2.51 µM (active)
C/N=C1\S/C(=C\c2ccc(O)c(OC)c2)C(=O)N1C,EC50,[16],> 300 µM (not active)
same,EC50,[17],> 300 µM (not active)
same,IC50,[18],11.1 µM (active)
COc1cc(/C=N/NC(N)=O)ccc1OCC(=O)N1C(C)CCCC1C (stereo not drawn),EC50,[3],5.74 µM (active)
same,EC50,[4],> 112 µM (not active)

# — ChEMBL document CHEMBL1201862, “PubChem BioAssay data set” (2004)
